Data set [1] concerns A/Puerto Rico/8/34 (H1N1). In words: CPE reduction assay, PR/8 (H1N1). It is filed as cell-based. The settings on record: Influenza A virus.
Data set [2] has as its system A/JiangXi-DongHu/312/2006 (H3N2). The experiment in a line: microbe, parasite or virus in culture. In kind it is cell-based, influenza A virus.
In another data set the test system is B/ShenZhen/155/2005. In words: CPE reduction assay, B/SZ/155. In kind it is cell-based. Conditions: Influenza B virus, B/SZ/155, CPE.
The nature of data set [3]: Cytotoxicity (CellTiter-Glo), MDCK cells. The settings on record: dog.
Data set [4] concerns influenza virus A/WSN/33(H1N1). The experiment in a line: Cytopathic effect (CPE) inhibition assay, WSN virus in MDCK cells. It is filed as cell-based. Conditions: for EC50: H1N1|WSN, 48 h; for Viral Infectivity (%): WSN MOI=1, 48 h, lower = better inhibition; for anti-influenza virus activity: WSN, CPE. On the technique in general: Cytopathic effects are the visible damage that an infection or toxin causes in cultured cells.

The next data set deals with A/WSN/33 (H1N1) virus. The experiment in a line: Plaque inhibition assay. It is filed as cell-based, influenza A virus. The settings on record: for Plaque number: 0 μM = 100.
A further data set deals with A/WSN/33(H1N1) virus. The experiment in a line: Time-of-addition experiment (viral NP by Western blotting). In kind it is cell-based, influenza A virus.
Data set [5] relates to H1N1 pseudotype virus (A/WSN/33 (H1N1) HA/NA). The experiment in a line: microbe, parasite or virus in culture. In kind it is cell-based. Conditions: Influenza A virus, H1N1pp, DMSO set to zero, read-out: inhibition rate.
Data set [6] relates to H5N1 pseudotype virus (A/VietNam/1203/2004 (H5N1) HA/NA). In words: microbe, parasite or virus in culture. The settings on record: Influenza A virus, H5N1, read-out: inhibition rate. In kind it is cell-based.
The subject of a further data set is VSV pseudotype virus. The experiment in a line: microbe, parasite or virus in culture. It is filed as cell-based. The settings on record: Vesicular stomatitis virus, read-out: inhibition rate.
In data set [7] the target is influenza virus (WSN strain) hemagglutinin protein (HA) (Influenza A virus, UniProt P03454). In words: Hemagglutination inhibition (HI) assay. Conditions: chicken erythrocytes.
Data set [8] concerns different influenza viruses. The experiment in a line: CPE reduction assays on different influenza viruses. In kind it is cell-based, influenza A virus and influenza B virus. The settings on record: for inhibition effect on different influenza viruses: PR/8, LN/1109, JX/312, HN/1222, B/SZ/155.
Another data set has as its system MDCK cells. The settings on record: dog, 48 h; for Cell viability (%) / Cell viability(%): 50 μM.
Data set [9] is described as follows: in vitro. The settings on record: human.
The nature of data set [10]: in vitro. The settings on record: dog.
A short description of data set [11]: in vitro. The settings on record: human. The source holds these as a separate data set.
In the next data set the test system is HIV. The settings on record: reported by European researchers; cited from earlier work.
Setting [12] is: PR/8 (H1N1), CPE, read-out: EC50.

SMILES strings stand for the structures. “Also recorded” adds a separate entry of the source. Read-outs that look alike come from different tables or passages of the source.

Sequence of influenza virus (WSN strain) hemagglutinin protein (HA) (P03454 18-342 limits assumed): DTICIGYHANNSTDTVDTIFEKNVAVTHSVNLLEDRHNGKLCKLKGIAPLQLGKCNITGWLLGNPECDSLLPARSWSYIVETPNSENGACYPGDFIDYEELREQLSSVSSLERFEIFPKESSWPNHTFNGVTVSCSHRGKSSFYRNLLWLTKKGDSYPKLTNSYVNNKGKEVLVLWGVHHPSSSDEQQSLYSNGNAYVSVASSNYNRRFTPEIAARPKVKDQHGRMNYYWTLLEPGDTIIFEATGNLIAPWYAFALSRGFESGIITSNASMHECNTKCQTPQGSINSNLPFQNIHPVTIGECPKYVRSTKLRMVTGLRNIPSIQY
Sequence of influenza virus (WSN strain) hemagglutinin protein (HA) (P03454 344-565 partner limits assumed): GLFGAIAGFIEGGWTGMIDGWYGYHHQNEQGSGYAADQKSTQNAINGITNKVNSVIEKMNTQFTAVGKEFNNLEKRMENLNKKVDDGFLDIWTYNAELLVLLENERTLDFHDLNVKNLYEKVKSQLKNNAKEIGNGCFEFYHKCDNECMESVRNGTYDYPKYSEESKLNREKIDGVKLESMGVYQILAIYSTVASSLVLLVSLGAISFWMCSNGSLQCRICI

What is called EC50 is the concentration at which the effect is half-maximal. With `NC12CC3CC(CC(C3)C1)C2` [Amantadine, amantadine, reference compound], the half-maximal effective concentration (EC50) in data set [1] (setting [12]) is 7.41 ± 0.21 µM; in data set [2] (Influenza A virus, H3N2), 8.58 ± 1.65 µM; in the data set on B/ShenZhen/155/2005, above 83.2 µM. The CC50 at 48 h in data set [3] is above 200 µM.
One may read the inhibition as the drop in the measured response relative to a control, in per cent. By IC50 is commonly meant the midpoint of a concentration-inhibition curve. Regarding `CC1(C)CC[C@]2(C(=O)O[C@H]3OC(CO)[C@@H](O)C(O)C3O)C(O)C[C@]3(C)C(=CC[C@@H]4[C@@]5(C)CC[C@H](O)C(C)(C)[C@@H]5CC[C@]43C)[C@@H]2C1` (stereo partly drawn) [Compound Q9, 3β,16α-dihydroxy-olean-12-en-28-oic acid-28-O-(β-D-galactoside)], the EC50 was 48.7 µM in data set [4] (MDCK); 17.5 ± 0.43 µM in data set [1] (setting [12]); 16.9 ± 5.38 µM in data set [2] (Influenza A virus, H3N2); 36.2 ± 7.21 µM in the data set on B/ShenZhen/155/2005. For the same molecule, the inhibition at 50 µM in [4] (MDCK, Table 9, 50 μM, protective rate against cytopathy, read-out: IAV inhibition rate (%)) was found to be 53.6 ± 6.16%; in data set [5] it was 61.9%; in data set [6], 16.8%; in the data set on VSV pseudotype virus, 3.8%. Further, the “Viral Infectivity (%)” value was found to be 21.1% in data set [4] (Table 6, 50 μM) and 21.1% in data set [4] (Table 8, 50 μM). Also, the “anti-influenza virus activity” value in [4] (50 μM) is recorded as “significant inhibitory effect on influenza virus; also recorded: significant inhibition activity against influenza virus”. In addition, the IC50 in the data set on A/WSN/33 (H1N1) virus (Influenza A virus, WSN, MDCK cells, read-out: IC50 (plaque formation reduction)) is below 5 µM. Besides, the Plaque number in the data set on A/WSN/33 (H1N1) virus (Q9 5 μM) was 42.9 ± 5.8; with A/WSN/33 (H1N1) virus (Q9 10 μM), 21.8 ± 2.5; in the data set on A/WSN/33 (H1N1) virus (Q9 25 μM), 14.1 ± 1.7; in the data set with A/WSN/33 (H1N1) virus (Q9 50 μM), 7.6 ± 2.5; in the data set with A/WSN/33 (H1N1) virus (Q9 100 μM) it was 0. In addition, the “NP level reduction compared with the DMSO control” value in the data set with A/WSN/33(H1N1) virus (interval 0-2 h) is recorded as around 62%; in the data set with A/WSN/33(H1N1) virus (interval 0-10 h) it was “around 75%”. Besides, the “antiviral activity” value in the data set with A/WSN/33(H1N1) virus (intervals 2-5, 5-8, and 8-10 h) is “no antiviral activity was detected”. The “stage of viral lifecycle acted on” value with A/WSN/33(H1N1) virus (time-of-addition) is reported as “acted on the entry step of influenza virus into cells; also recorded: effective at the early stage (0-2 h) of the viral lifecycle”. Moreover, the “effect on binding of viruses to cellular receptors” value in [7] is listed as “interfered the binding of viruses to cellular receptors”. In addition, the “inhibition effect on different influenza viruses” value in [8] is on record as “various extent of inhibition effect”. For the same molecule, the CC50 with MDCK cells was above 200 µM. Also, the “Cell viability (%)” value in the data set with MDCK cells is listed as 100.3%. In addition, in the data set on MDCK cells, the “Cell viability(%)” value is 89%. For the same molecule, the CC50 at 48 h in “in vitro [9]”, in the data set “in vitro [10]” and in “in vitro [11]” was above 100 µM each time.
`CC(=O)OCC1O[C@H](O[C@H]2C(COC(C)=O)O[C@H](OC(=O)[C@]34CCC(C)(C)C[C@H]3C3=CC[C@@H]5[C@@]6(C)CC[C@H](O)C(C)(C)[C@@H]6CC[C@@]5(C)[C@]3(C)CC4O)C(OC(C)=O)C2OC(C)=O)C(OC(C)=O)C(OC(C)=O)[C@@H]1OC(C)=O` (stereo partly drawn) [Compound Q10, 3β,16α-dihydroxy-olean-12-en-28-oic acid-28-O-(hepta-O-acetyl-β-D-lactoside)] registered an EC50 in data set [4] (MDCK) above 100 µM. Further, in data set [4] (Table 6, 50 μM), the “Viral Infectivity (%)” value was 100.6%. The “Cell viability(%)” value with MDCK cells amounted to 98.1%. Besides, the CC50 at 48 h in “in vitro [9]”, in the data set “in vitro [10]” and in the data set “in vitro [11]” was above 100 µM in each case.
On to `CC1(C)CC[C@@]2(C(=O)N[C@H]3OC(CO)[C@@H](O)C(O)C3O)C(C1)C1=CCC3[C@@]4(C)CC[C@H](O)C(C)(C)C4CC[C@@]3(C)[C@]1(C)C[C@H]2O` (stereo partly drawn) [Compound Y2, 3β,16α-dihydroxy-olean-12-en-28-oic acid-28-N-(β-D-galactoside)], for which the “Viral Infectivity (%)” value in data set [4] (Table 8, 50 μM) worked out at 17.5%. In addition, the “anti-influenza virus activity” value in data set [4] (50 μM) was “significant anti-influenza virus activity”. Besides, the figures for the EC50 (in data set [1] (setting [12]); in data set [2]; in the data set with B/ShenZhen/155/2005) were 6.22 ± 0.83 µM, above 22.2 µM and above 22.2 µM, respectively. The “inhibition effect on different influenza viruses” value in data set [8] is on record as “various extent of inhibition effect”. Moreover, the “Cell viability (%)” value in the data set on MDCK cells was determined as 105.0%. The molecule also came in with a CC50 at 48 h in “in vitro [10]” above 100 µM.
Turning to `CC(=O)OCC1O[C@H](NC(=O)[C@]23CCC(C)(C)CC2C2=CCC4[C@@]5(C)CC[C@H](O)C(C)(C)C5CC[C@@]4(C)[C@]2(C)CC3)C(OC(C)=O)C(OC(C)=O)[C@@H]1OC(C)=O` (stereo partly drawn) [Compound Y5, 3β-hydroxy-olean-12-en-28-oic acid-28-N-(2,3,4,6-tetra-O-acetyl-β-D-galactoside)], in [4] (Table 8, 50 μM), the “Viral Infectivity (%)” value is 9.0%. Also, in [4] (50 μM), the “anti-influenza virus activity” value was “significant anti-influenza virus activity; also recorded: most significant anti-influenza virus activity”. For the same molecule, the 50% effective concentration (EC50) in data set [1] (setting [12]) was 7.41 ± 0.05 µM; in [2] (Influenza A virus, H3N2) it was 2.72 ± 0.35 µM; in the data set with B/ShenZhen/155/2005, 2.8 ± 0.74 µM; in data set [8] (strain not specified), below 2 µM. Also, the “inhibition effect on different influenza viruses” value in data set [8] is on record as “various extent of inhibition effect”. The “Cell viability (%)” value in the data set with MDCK cells was found to be 81.7%. The same molecule returned a CC50 at 48 h in “in vitro [10]” above 100 µM.
Take `CC1(C)CC[C@]2(C(=O)N[C@H]3OC(CO)[C@H](O)C(O)C3O)CC[C@]3(C)C(=CCC4[C@@]5(C)CC[C@H](O)C(C)(C)C5CC[C@]43C)C2C1` (stereo partly drawn) [Compound Y8, 3β-hydroxy-olean-12-en-28-oic acid-28-N-(β-D-galactoside)]: the “Viral Infectivity (%)” value in data set [4] (Table 8, 50 μM) was 19.5%. In data set [4] (50 μM), the “anti-influenza virus activity” value is “significant anti-influenza virus activity”. The “Cell viability (%)” value with MDCK cells was 85.0%.
`CCOC(=O)C1=C[C@@H](OC(CC)CC)[C@H](NC(C)=O)[C@@H](N)C1` [OSV-P, oseltamivir phosphate, reference compound]: the concentration for a half-maximal effect (EC50) was 45.6 µM in data set [4] (MDCK); above 200 µM in data set [1] (setting [12]); 2.06 ± 0.58 µM in data set [2] (Influenza A virus, H3N2); 91.1 ± 34.5 µM with B/ShenZhen/155/2005. For the same molecule, the CC50 with MDCK cells is above 200 µM. In addition, the CC50 at 48 h in the data set “in vitro [9]”, in “in vitro [10]” and in the data set “in vitro [11]” was above 100 µM each time.
Regarding `NC(=O)c1ncn([C@@H]2O[C@H](CO)[C@@H](O)[C@H]2O)n1` [RBV, ribavirin, reference compound], the concentration giving a half-maximal response (EC50) in data set [4] (MDCK) stood at 42.7 µM; in data set [1], 4.02 ± 1.27 µM; in [2] (Influenza A virus, H3N2) it was 4.19 ± 0.35 µM; with B/ShenZhen/155/2005 it was 1.32 ± 0.6 µM.
With `CC1(C)CC[C@]2(C(=O)O)CC[C@]3(C)C(=CC[C@@H]4[C@@]5(C)C[C@@H](O)[C@H](O)C(C)(C)[C@@H]5CC[C@]43C)[C@@H]2C1` [hawthorn acid], the “inhibition rate of spread of HIV in the body” value in the data set with HIV is “up to 80%”.

These data come from patent US9920088B2, “Triterpene derivative and its anti-influenza use” (Peking University, priority 2012, dated 2018).
